Experimental findings from US20230391764A1, “BENZOTHIAZOLYL BICYCLO[1.1.1]PENTANE DERIVATIVES FOR THE TREATMENT AND PROPHYLAXIS OF HEPATITIS B VIRUS INFECTION” (Hoffmann-La Roche Inc., priority 2021, published 2023) are described below.

Usually pIC50 stands for the negative decadic logarithm of the IC50, by convention in mol/L. As usually defined, the CC50 is the concentration at which the toxic effect on the cells reaches its halfway point. The low end stands for greater toxicity to the cells, the high end for lower toxicity to the cells.

Structures are written as SMILES. pIC50: −log10 of the molar value.

Common to all, as to format: cell-based
The test system of one data set is HBsAg. In words: PHH HBV natural infection assay, HBsAg (alphalisa). The note with it: Hepatitis B virus, 72 h, read-out: HBsAg IC50. The method, then: (§1) Detailed procedures regarding primary human hepatocyte (PHH) HBV natural infection assay are described as below. One tube of frozen PHH (10 million cells) is thawed in 37° C. water bath and then transferred to 20 mL of PHH thawing medium (Sigma, InVitroGRO HT Medium, Cat. S03319) with gently mixing. The cells were then centrifuged at […] for 5 min, the supernatant was discarded and the tube was refilled with 25 mL of PHH plating medium (Sigma, InVitroGRO CP Medium, Cat. S03317). The tube was shaken very gently to re-suspend all cells, and then 50 μl of cells were transferred to each well 384-well collagen I coated plate with appropriate liquid handling equipment, e.g. Integra VIAFLO384 or Agilent Bravo. The cells were then cultured for 24 hours in a cell incubator. For HBV infection, after PHH attachment on the culture plate, the plating medium was removed and replenished with PHH culture medium containing HBV virus. The PHH culture medium was prepared with Dulbecco's Modified Eagle Medium (DMEM)/F12 (1:1 in volume ratio) containing 10% fetal bovine serum (Gibco, Cat.10099141), 5 ng/mL human epidermal growth factor (Gibco, Cat.PHG0311L), 20 ng/mL dexamethasone (Sigma, Cat.D4902-100 mg), 250 ng/mL human recombinant insulin (Gibco, Cat.41400045) and 100 U/mL penicillin. HBV virus at 200 genome equivalent (GE) per cell with 4% PEG8000 (Sigma, Cat.P1458) containing culture medium were added to the PHH culture medium for infection. The cells were then cultured for 24 hours in cell incubator. Then the cell culture supernatant was removed. The HBV-infected PHH were cultured with sandwich culture method with PHH culture medium containing 1% DMSO and 0.25 mg/mL matrix gel for 72 hours. The supernatant was then refreshed with PHH culture medium containing different concentrations of testing compounds for two times with 72-hour interval. At the end of treatment, the supernatant was collected for viral markers measurements, including HBsAg, HBeAg, HBV DNA and cytotoxicity. HBsAg and HBeAg were detected using alphalisa method using their specific antibodies. For HBV DNA detection, HBV DNA Quantitative Fluorescence Diagnostic Kit (Sansure Biotech Inc.) was used following the manufacture's protocol. Cytotoxicity was determined using Cell Counting Kit-8 (CCK8, Dojindo Molecular Technologies, Inc.).
(§2) The compounds of the present invention were tested for their capacity to inhibit HBsAg and HBeAg as described herein.
(In general: In Alpha technology, singlet oxygen from a donor bead excites a nearby acceptor bead.)

For the next data set, the system named is HBeAg. Put plainly: PHH HBV natural infection assay, HBeAg (alphalisa). The settings on record: Hepatitis B virus, 72 h, read-out: HBeAg IC50. The method, then: as §1, §2
Data set [1] is described as follows: PHH natural infection assay, cytotoxicity (Cell Counting Kit-8). The settings on record: human; HBV-infected PHH, CCK8. The method, then: as §1
In general terms: Tetrazolium assays rely on reduction of a dye to a coloured formazan, in cell work by metabolically active cells.

As to `CS(=O)(=O)C1(c2noc(C(=O)NC34CC(c5nc6ccc(Cl)cc6s5)(C3)C4)n2)CC1` [Example 76, N-[3-(6-chloro-1,3-benzothiazol-2-yl)-1-bicyclo[1.1.1]pentanyl]-3-(1-methylsulfonylcyclopropyl)-1,2,4-oxadiazole-5-carboxamide], the pIC50 in the data set on HBsAg was 6.15; with HBeAg it was 6.40. The compound further yielded a half-maximal cytotoxic concentration (CC50) at 144 h in data set [1] of 4270 nM.

Consider `CS(=O)(=O)C1(c2nc(C(=O)NC34CC(c5nc6ccc(Br)cc6s5)(C3)C4)no2)CC1` [Example 77, N-[3-(6-bromo-1,3-benzothiazol-2-yl)-1-bicyclo[1.1.1]pentanyl]-5-(1-methylsulfonylcyclopropyl)-1,2,4-oxadiazole-3-carboxamide], for which the pIC50 was 6.07 in the data set on HBsAg and 6.21 with HBeAg. This compound showed a 50% cytotoxic concentration (CC50) at 144 h in data set [1] of 6490 nM.
